Tests used:
Assay type in all cases: biochemical
[1] = target: T1, calpain-I isolated from human erythrocytes (Homo sapiens, UniProt P07384); assay: Calpain I kinetic fluorescence enzyme inhibition assay; settings: apparent Ki from IC50 by Cheng-Prussoff; average of 2 to 4 dose-effect plots
T1 construct: calpain-I—isolated from human erythrocytes; purchased Calbiochem 208713; host or cells: human erythrocytes (tissue isolate)
T1 sequence (P07384 1-714): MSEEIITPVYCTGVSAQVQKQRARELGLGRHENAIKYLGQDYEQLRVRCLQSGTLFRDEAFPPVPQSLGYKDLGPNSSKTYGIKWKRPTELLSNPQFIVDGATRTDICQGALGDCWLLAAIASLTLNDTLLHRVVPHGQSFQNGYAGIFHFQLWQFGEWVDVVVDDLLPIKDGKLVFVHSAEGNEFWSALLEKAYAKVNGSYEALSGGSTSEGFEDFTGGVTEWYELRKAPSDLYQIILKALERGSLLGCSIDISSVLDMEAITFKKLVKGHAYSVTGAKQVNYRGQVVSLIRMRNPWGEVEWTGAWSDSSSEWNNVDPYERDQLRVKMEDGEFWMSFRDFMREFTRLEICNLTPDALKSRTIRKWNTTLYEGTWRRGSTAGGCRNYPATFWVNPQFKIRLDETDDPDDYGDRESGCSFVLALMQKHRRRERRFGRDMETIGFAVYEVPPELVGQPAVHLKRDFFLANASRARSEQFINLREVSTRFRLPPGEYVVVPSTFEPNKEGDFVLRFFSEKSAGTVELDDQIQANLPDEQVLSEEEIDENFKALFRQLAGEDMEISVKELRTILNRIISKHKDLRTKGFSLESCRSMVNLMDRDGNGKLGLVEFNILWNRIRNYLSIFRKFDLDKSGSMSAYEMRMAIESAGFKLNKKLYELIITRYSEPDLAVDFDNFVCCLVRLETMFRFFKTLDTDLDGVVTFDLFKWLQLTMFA
T1 sequence (P04632 1-268 partner): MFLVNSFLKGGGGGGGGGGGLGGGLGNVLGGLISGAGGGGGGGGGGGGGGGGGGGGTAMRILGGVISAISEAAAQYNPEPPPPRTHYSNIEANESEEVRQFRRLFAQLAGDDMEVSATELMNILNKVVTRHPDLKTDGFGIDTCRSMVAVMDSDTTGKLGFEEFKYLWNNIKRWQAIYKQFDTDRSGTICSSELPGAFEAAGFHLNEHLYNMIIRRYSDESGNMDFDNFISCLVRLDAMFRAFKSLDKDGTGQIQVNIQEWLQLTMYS

[2] = target: T2, cathepsin L isolated from human liver (Homo sapiens, UniProt P07711); assay: Cathepsin L kinetic fluorescence enzyme inhibition assay; settings: selectivity ratio versus calpain I
T2 construct: cathepsin L—isolated from human liver; purchased Calbiochem 219402; host or cells: human liver (tissue isolate)
T2 sequence (P07711 114-333): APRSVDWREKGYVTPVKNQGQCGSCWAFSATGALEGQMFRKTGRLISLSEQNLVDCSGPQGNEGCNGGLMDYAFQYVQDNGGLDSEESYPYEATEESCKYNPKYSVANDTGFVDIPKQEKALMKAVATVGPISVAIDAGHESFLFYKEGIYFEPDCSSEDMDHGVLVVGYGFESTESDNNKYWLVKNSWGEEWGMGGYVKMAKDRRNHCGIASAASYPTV
Outline: (§1)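 Cathepsin B (0.25 nM, human liver) with 100 μM Z-Phe-Arg-AMC; L (1 nM, human liver) with 2 μM Z-Phe-Arg-AMC; S (0.5 nM, recombinant) with 20 μM Z-Val-Val-Arg-AMC. pH 6.0 MES buffer, 2.5 mM L-cysteine, room temperature. Kinetic fluorescence (ex 390/em 460 nm); apparent Ki from IC50 by Cheng-Prusoff.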

[3] = target: T3, cathepsin K activated from recombinant human procathepsin K (Homo sapiens, UniProt P43235); assay: Cathepsin K kinetic fluorescence enzyme inhibition assay; settings: selectivity ratio versus calpain I
T3 construct: purchased Calbiochem 342001; host or cells: E. coli
T3 sequence (P43235 115-329): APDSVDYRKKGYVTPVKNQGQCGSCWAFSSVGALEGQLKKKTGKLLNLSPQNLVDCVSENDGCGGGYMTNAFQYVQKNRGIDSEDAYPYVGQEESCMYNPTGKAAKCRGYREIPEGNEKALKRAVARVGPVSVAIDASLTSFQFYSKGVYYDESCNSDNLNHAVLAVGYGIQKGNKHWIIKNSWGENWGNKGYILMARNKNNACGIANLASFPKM

[4] = target: T4, cathepsin B isolated from human liver (Homo sapiens, UniProt P07858); assay: Cathepsin B kinetic fluorescence enzyme inhibition assay; settings: selectivity ratio versus calpain I
T4 construct: cathepsin B—isolated from human liver; purchased Calbiochem 219362; host or cells: human liver (tissue isolate)
Outline: as §1

[5] = target: T5, recombinant human cathepsin S (Homo sapiens, UniProt P25774); assay: Cathepsin S kinetic fluorescence enzyme inhibition assay; settings: selectivity ratio versus calpain I
T5 construct: purchased Calbiochem 219343; host or cells: E. coli
T5 sequence (P25774 115-331): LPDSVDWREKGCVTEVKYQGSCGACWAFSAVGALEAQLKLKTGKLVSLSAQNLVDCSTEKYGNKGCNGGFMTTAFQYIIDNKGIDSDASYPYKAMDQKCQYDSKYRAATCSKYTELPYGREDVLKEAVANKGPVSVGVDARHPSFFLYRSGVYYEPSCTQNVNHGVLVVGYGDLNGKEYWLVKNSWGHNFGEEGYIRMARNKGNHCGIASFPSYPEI
Outline: as §1

SMILES	Ki [1] [nM]	Sel cat. L (Ki(cathepsin L)/Ki(calpain) ratio) [2]	Sel cat. K (Ki(cathepsin K)/Ki(calpain) ratio) [3]	Sel cat. B (Ki(cathepsin B)/Ki(calpain) ratio) [4]	Sel cat. S (Ki(cathepsin S)/Ki(calpain) ratio) [5]
CS(=O)(=O)Nc1cnc(-n2ccc(-c3ccccc3)n2)c(C(=O)NC(Cc2ccccc2)C(=O)C(N)=O)c1 (centres unmarked) [Example 158, N-[3-Amino-2,3-dioxo-1-(phenylmethyl)propyl]-5-[(methylsulfonyl)amino]-2-(3-phenyl-1H-pyrazol-1-yl)pyridine-3-carboxamide]	40 to 100	++ (Ki(cathepsin L)/Ki(calpain) ratio of ≧50)	++ (Ki(cathepsin K)/Ki(calpain) ratio of ≧30)	++ (Ki(cathepsin B)/Ki(calpain) ratio of ≧30)	++ (Ki(cathepsin S)/Ki(calpain) ratio of ≧100)
NC(=O)C(=O)C(Cc1ccccc1)NC(=O)c1cccnc1-n1ccc(-c2cccc3cccnc23)n1 (centres unmarked) [Example 160, N-[3-amino-2,3-dioxo-1-(phenylmethyl)propyl]-2-(3-quinolin-8-yl-1H-pyrazol-1-yl)pyridine-3-carboxamide]	40 to 100	++ (Ki(cathepsin L)/Ki(calpain) ratio of ≧50)	++ (Ki(cathepsin K)/Ki(calpain) ratio of ≧30)	++ (Ki(cathepsin B)/Ki(calpain) ratio of ≧30)	++ (Ki(cathepsin S)/Ki(calpain) ratio of ≧100)
NC(=O)C(=O)C(Cc1cccc(F)c1)NC(=O)c1cccnc1-n1ccc(-c2ccccc2OC(F)(F)F)n1 (centres unmarked) [Example 162, N-{3-Amino-1-[(3-fluorophenyl)methyl]-2,3-dioxopropyl}-2-(3-{2-[(trifluoromethyl)oxy]phenyl}-1H-pyrazol-1-yl)pyridine-3-carboxamide]	40 to 100	++ (Ki(cathepsin L)/Ki(calpain) ratio of ≧50)	++ (Ki(cathepsin K)/Ki(calpain) ratio of ≧30)	++ (Ki(cathepsin B)/Ki(calpain) ratio of ≧30)	++ (Ki(cathepsin S)/Ki(calpain) ratio of ≧100)
NC(=O)C(=O)C(Cc1ccccc1)NC(=O)c1cccnc1-n1ccc(-c2cc(C(F)(F)F)ccc2CN2CCOCC2)n1 (centres unmarked) [Example 163, N-[3-Amino-2,3-dioxo-1-(phenylmethyl)propyl]-2-{3-[2-(morpholin-4-ylmethyl)-5-(trifluoromethyl)phenyl]-1H-pyrazol-1-yl}pyridine-3-carboxamide]	40 to 100	+ (30≦Ki(cathepsin L)/Ki(calpain)<50)	+ (10≦Ki(cathepsin K)/Ki(calpain)<30)	+ (10≦Ki(cathepsin B)/Ki(calpain)<30)	++ (Ki(cathepsin S)/Ki(calpain) ratio of ≧100)
NC(=O)C(=O)C(Cc1ccccc1)NC(=O)c1cccnc1-n1ccc(-c2cccc3c2OCC3)n1 (centres unmarked) [Example 164, N-[3-Amino-2,3-dioxo-1-(phenylmethyl)propyl]-2-[3-(2,3-dihydro-1-benzofuran-7-yl)-1H-pyrazol-1-yl]pyridine-3-carboxamide]	≤ 40	++ (Ki(cathepsin L)/Ki(calpain) ratio of ≧50)	++ (Ki(cathepsin K)/Ki(calpain) ratio of ≧30)	+ (10≦Ki(cathepsin B)/Ki(calpain)<30)	++ (Ki(cathepsin S)/Ki(calpain) ratio of ≧100)
NC(=O)C(=O)C(Cc1ccccc1)NC(=O)c1cccnc1-n1ccc(-c2ccccc2OC(F)F)n1 (centres unmarked) [Example 166, N-[3-Amino-2,3-dioxo-1-(phenylmethyl)propyl]-2-(3-{2-[(difluoromethyl)oxy]phenyl}-1H-pyrazol-1-yl)pyridine-3-carboxamide]	≤ 40	++ (Ki(cathepsin L)/Ki(calpain) ratio of ≧50)	++ (Ki(cathepsin K)/Ki(calpain) ratio of ≧30)	+ (10≦Ki(cathepsin B)/Ki(calpain)<30)	++ (Ki(cathepsin S)/Ki(calpain) ratio of ≧100)
NC(=O)C(=O)C(Cc1ccccc1)NC(=O)c1cccnc1-n1ccc(-c2cccc(OC(F)(F)F)c2)n1 (centres unmarked) [Example 168, N-[3-Amino-2,3-dioxo-1-(phenylmethyl)propyl]-2-(3-{3-[(trifluoromethyl)oxy]phenyl}-1H-pyrazol-1-yl)pyridine-3-carboxamide]	≤ 40	++ (Ki(cathepsin L)/Ki(calpain) ratio of ≧50)	+ (10≦Ki(cathepsin K)/Ki(calpain)<30)	+ (10≦Ki(cathepsin B)/Ki(calpain)<30)	++ (Ki(cathepsin S)/Ki(calpain) ratio of ≧100)
NC(=O)C(=O)C(Cc1ccccc1)NC(=O)c1cccnc1-n1cc2c(n1)-c1ccccc1SC2 (centres unmarked) [Example 173, N-[3-Amino-2,3-dioxo-1-(phenylmethyl)propyl]-2-thiochromeno[4,3-c]pyrazol-2(4H)-ylpyridine-3-carboxamide]	≤ 40	++ (Ki(cathepsin L)/Ki(calpain) ratio of ≧50)	+ (10≦Ki(cathepsin K)/Ki(calpain)<30)	+ (10≦Ki(cathepsin B)/Ki(calpain)<30)	++ (Ki(cathepsin S)/Ki(calpain) ratio of ≧100)
NC(=O)C(=O)C(Cc1ccccc1)NC(=O)c1cccnc1-n1cc2c(n1)-c1ccccc1S(=O)(=O)C2 (centres unmarked) [Example 174, N-[3-Amino-2,3-dioxo-1-(phenylmethyl)propyl]-2-(5,5-dioxidothiochromeno[4,3-c]pyrazol-2(4H)-yl)pyridine-3-carboxamide]	≤ 40	++ (Ki(cathepsin L)/Ki(calpain) ratio of ≧50)	+ (10≦Ki(cathepsin K)/Ki(calpain)<30)	+ (10≦Ki(cathepsin B)/Ki(calpain)<30)	++ (Ki(cathepsin S)/Ki(calpain) ratio of ≧100)
NC(=O)C(=O)C(Cc1ccccc1)NC(=O)c1cccnc1-n1cc2c(n1)-c1cccc(Cl)c1OC2 (centres unmarked) [Example 175, N-[3-Amino-2,3-dioxo-1-(phenylmethyl)propyl]-2-(6-chlorochromeno[4,3-c]pyrazol-2(4H)-yl)pyridine-3-carboxamide]	≤ 40	++ (Ki(cathepsin L)/Ki(calpain) ratio of ≧50)	++ (Ki(cathepsin K)/Ki(calpain) ratio of ≧30)	++ (Ki(cathepsin B)/Ki(calpain) ratio of ≧30)	++ (Ki(cathepsin S)/Ki(calpain) ratio of ≧100)
